Measurements taken from patent publication US12590091B2, “1H-pyrrolo[3,2-C]pyridine and 1H-pyrrolo[2,3-C]pyridine derivatives as TLR9 inhibitors for the treatment of fibrosis” (BRISTOL-MYERS SQUIBB COMPANY, priority 2020, dated 2026).
pIC50: −log10 of the molar value.

Columns and labels:
human TLR8 = molecular target: T1, human TLR8 (Homo sapiens, UniProt Q9NR97); assay: TLR8 inhibition reporter assay (HEK-Blue cells, SEAP reporter); format: cell-based; conditions: HEK-Blue cells overexpressing human TLR8, stimulated with R848 15.9 μM, 22 hour incubation
T1 construct: host or cells: HEK-Blue cells
T1 sequence (Q9NR97 27-1041): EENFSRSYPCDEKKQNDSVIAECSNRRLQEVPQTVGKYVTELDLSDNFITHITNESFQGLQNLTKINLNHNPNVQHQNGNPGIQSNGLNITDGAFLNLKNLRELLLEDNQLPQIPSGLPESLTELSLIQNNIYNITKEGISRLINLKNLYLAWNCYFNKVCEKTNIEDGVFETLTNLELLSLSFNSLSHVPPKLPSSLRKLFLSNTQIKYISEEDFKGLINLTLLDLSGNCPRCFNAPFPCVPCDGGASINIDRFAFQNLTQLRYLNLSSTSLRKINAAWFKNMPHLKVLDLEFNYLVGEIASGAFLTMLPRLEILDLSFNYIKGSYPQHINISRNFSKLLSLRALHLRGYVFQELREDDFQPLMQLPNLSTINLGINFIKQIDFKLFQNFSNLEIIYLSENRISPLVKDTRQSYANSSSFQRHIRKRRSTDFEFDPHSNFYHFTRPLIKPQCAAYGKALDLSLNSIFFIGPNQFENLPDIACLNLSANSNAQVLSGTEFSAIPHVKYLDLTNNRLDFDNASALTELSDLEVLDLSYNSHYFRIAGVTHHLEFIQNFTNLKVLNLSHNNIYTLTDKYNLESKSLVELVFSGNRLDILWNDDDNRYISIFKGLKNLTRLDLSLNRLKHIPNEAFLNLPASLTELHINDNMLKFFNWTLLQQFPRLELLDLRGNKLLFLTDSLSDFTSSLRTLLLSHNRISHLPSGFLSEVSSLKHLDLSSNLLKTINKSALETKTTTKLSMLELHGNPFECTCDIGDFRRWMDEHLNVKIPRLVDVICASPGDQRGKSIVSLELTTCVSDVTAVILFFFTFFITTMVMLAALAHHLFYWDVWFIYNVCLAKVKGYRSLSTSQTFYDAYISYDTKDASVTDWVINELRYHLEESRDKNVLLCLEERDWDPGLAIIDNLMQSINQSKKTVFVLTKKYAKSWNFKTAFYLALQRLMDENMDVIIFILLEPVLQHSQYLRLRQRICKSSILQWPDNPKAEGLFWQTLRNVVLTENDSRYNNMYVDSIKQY
Experimental: TLR7/8/9 Inhibition Reporter Assays
HEK-Blue™-cells (Invivogen) overexpressing human TLR7, TLR8 or TLR9 receptors were used for screening inhibitors of these receptors using an inducible SEAP (secreted embryonic alkaline phosphatase) reporter gene under the control of the IFN-β minimal promoter fused to five NF-κB and AP-1-binding sites. Briefly, cells are seeded into Greiner 384 well plates (15000 cells per well for TLR7, 20,000 for TLR8 and 25,000 for TLR9) and then treated with test compounds in DMSO to yield a final dose response concentration range of 0.05 nM-50 μM. After a 30 minute compound pre-treatment at room temperature, the cells are then stimulated with a TLR7 ligand (gardiquimod at a final concentration of 7.5 μM), TLR8 ligand (R848 at a final concentration of 15.9 μM) or TLR9 ligand (ODN2006 at a final concentration of 5 nM) to activate NF-κB and AP-1 which induce the production of SEAP. After a 22 hour incubation at 37° C., 5% CO2, SEAP levels are determined with the addition of HEK-Blue™ Detection reagent (Invivogen), a cell culture medium that allows for detection of SEAP, according to manufacturer's specifications. The percent inhibition is determined as the % reduction in the HEK-Blue signal present in wells treated with agonist plus DMSO alone compared to wells treated with a known inhibitor.

human TLR7 = molecular target: T2, human TLR7 (Homo sapiens, UniProt Q9NYK1); assay: TLR7 inhibition reporter assay (HEK-Blue cells, SEAP reporter); format: cell-based; conditions: HEK-Blue cells overexpressing human TLR7, stimulated with gardiquimod 7.5 μM, 22 hour incubation
T2 construct: host or cells: HEK-Blue cells
T2 sequence (Q9NYK1 27-1049): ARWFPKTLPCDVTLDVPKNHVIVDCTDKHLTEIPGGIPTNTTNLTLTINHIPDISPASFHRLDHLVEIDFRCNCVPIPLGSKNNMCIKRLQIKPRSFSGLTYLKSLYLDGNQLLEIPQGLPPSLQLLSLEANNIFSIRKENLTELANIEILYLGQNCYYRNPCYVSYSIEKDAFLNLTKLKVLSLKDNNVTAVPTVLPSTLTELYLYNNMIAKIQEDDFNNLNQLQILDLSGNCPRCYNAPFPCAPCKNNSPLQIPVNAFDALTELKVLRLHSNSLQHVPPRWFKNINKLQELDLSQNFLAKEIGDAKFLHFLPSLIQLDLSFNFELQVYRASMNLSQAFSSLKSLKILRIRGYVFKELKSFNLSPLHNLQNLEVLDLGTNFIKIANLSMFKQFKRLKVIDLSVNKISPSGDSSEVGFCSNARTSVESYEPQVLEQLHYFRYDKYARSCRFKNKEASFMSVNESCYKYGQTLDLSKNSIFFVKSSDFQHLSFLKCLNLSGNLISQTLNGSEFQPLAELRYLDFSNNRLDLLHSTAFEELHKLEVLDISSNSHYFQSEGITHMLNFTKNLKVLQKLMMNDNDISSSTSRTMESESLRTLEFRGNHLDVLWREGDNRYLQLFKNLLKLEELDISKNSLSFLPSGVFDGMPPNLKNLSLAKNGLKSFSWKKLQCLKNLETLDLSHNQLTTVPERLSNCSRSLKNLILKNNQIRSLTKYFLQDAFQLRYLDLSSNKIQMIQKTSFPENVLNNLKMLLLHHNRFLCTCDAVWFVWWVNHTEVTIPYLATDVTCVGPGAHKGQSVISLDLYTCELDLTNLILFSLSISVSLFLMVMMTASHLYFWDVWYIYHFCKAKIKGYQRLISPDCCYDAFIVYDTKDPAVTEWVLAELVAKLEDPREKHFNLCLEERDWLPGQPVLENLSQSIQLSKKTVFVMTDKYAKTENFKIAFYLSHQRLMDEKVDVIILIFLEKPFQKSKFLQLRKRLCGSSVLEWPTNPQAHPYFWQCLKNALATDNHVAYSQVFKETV
Method in brief: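 Compound treatment: 30 min, RT, 0.05 nM–50 μM final. Agonist: TLR7 gardiquimod 7.5 μM; TLR8 R848 15.9 μM; TLR9 ODN2006 5 nM. Incubation 22 h, 37 °C, 5% CO2. Readout SEAP, HEK-Blue Detection.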

| pIC50 (human TLR8) | pIC50 (human TLR7) | Structure (SMILES) |
| --- | --- | --- |
| 4.63 | 5.10 | COc1ccc(-c2c(C)[nH]c3cnc(C4CCN(c5cc(C)nc(C)c5)CC4)cc23)cc1OC [Example 6, 3-(3,4-Dimethoxyphenyl)-5-(1-(2,6-dimethylpyridin-4-yl)piperidin-4-yl)-2-methyl-1H-pyrrolo[2,3-c]pyridine] |
| 5.82 | 5.59 | COc1ccc(-c2cc3cnc(-c4ccc(N5CCN(C)CC5)cc4)cc3n2C)cc1OC [Example 27, 2-(3,4-dimethoxyphenyl)-1-methyl-6-(4-(4-methylpiperazin-1-yl)phenyl)-1H-pyrrolo[3,2-c]pyridine] |
| 4.54 | 5.57 | COc1ccc(-c2c(C)[nH]c3cnc(-c4ccc(N5CCN(C(C)C)CC5)cc4)cc23)cc1OC [Example 2, 3-(3,4-dimethoxyphenyl)-5-(4-(4-isopropylpiperazin-1-yl)phenyl)-2-methyl-1H-pyrrolo[2,3-c]pyridine] |
| < 4.30 | 5.49 | COc1ccc(-c2c(C)n(C)c3cnc(-c4ccc(N5CCN(CCC(C)(C)O)CC5)cc4)cc23)cc1OC [Example 33, 4-(4-(4-(3-(3,4-dimethoxyphenyl)-1,2-dimethyl-1H-pyrrolo[2,3-c]pyridin-5-yl)phenyl)piperazin-1-yl)-2-methylbutan-2-ol] |
| < 4.30 | 5.19 | Cc1nc(-c2ccc(N3CCN(CC(C)C)CC3)c(F)c2F)cc2c1cc(-c1ccc(S(C)(=O)=O)cc1)n2C [Example 82, 6-(2,3-difluoro-4-(4-isobutylpiperazin-1-yl)phenyl)-1,4-dimethyl-2-(4-(methylsulfonyl)phenyl)-1H-pyrrolo[3,2-c]pyridine] |
| 4.88 | 4.73 | Cc1nc(-c2cc(F)c(N3CCN(CCCO)CC3)cc2F)cc2c1cc(-c1ccc(S(C)(=O)=O)cc1)n2C [Example 56, 3-(4-(4-(1,4-dimethyl-2-(4-(methylsulfonyl)phenyl)-1H-pyrrolo[3,2-c]pyridin-6-yl)-2,5-difluorophenyl)piperazin-1-yl)propan-1-ol] |
| < 4.60 | < 4.60 | Cc1nc(-c2ccc(N3CCN(C4CCOC4)CC3)c(F)c2)cc2c1cc(-c1ccc(S(C)(=O)=O)cc1)n2C (centres unmarked) [Example 70, 6-(3-fluoro-4-(4-(tetrahydrofuran-3-yl)piperazin-1-yl)phenyl)-1,4-dimethyl-2-(4-(methylsulfonyl)phenyl)-1H-pyrrolo[3,2-c]pyridine] |
| 5.92 | 5.14 | COc1ccc(-c2cc3cnc(C4CCN(C5CCN(C(=O)c6ccccc6)CC5)CC4)cc3n2C)cc1OC [Example 26, (4-(2-(3,4-dimethoxyphenyl)-1-methyl-1H-pyrrolo[3,2-c]pyridin-6-yl)-[1,4′-bipiperidin]-1′-yl)(phenyl)methanone] |

The remaining lines, values behind:

| Structure (SMILES) | pIC50 (human TLR8) | pIC50 (human TLR7) |
| --- | --- | --- |
| Cc1nc(-c2ccc(CN3CCN(CCC(C)(C)O)CC3)cc2)cc2c1cc(-c1ccc(S(C)(=O)=O)cc1)n2C [Example 60, 4-(4-(4-(1,4-dimethyl-2-(4-(methylsulfonyl)phenyl)-1H-pyrrolo[3,2-c]pyridin-6-yl)benzyl)piperazin-1-yl)-2-methylbutan-2-ol] | 5.34 | 5.27 |
| Cc1nc(-c2ccc(CN3CCN(CCC(C)(C)O)CC3)cc2)cc2c1c(F)c(-c1ccc(S(C)(=O)=O)cc1)n2C [Example 115, 4-(4-(4-(3-fluoro-1,4-dimethyl-2-(4-(methylsulfonyl)phenyl)-1H-pyrrolo[3,2-c]pyridin-6-yl)benzyl)piperazin-1-yl)-2-methylbutan-2-ol] | 5.68 | 4.80 |
| CCN1C2CCC1CC(O)(c1ccc(-c3cc4c(cc(-c5ccc(S(C)(=O)=O)cc5)n4C)c(C)n3)cc1F)C2 [Example 101, (1R,3r,5S)-3-(4-(1,4-dimethyl-2-(4-(methylsulfonyl)phenyl)-1H-pyrrolo[3,2-c]pyridin-6-yl)-2-fluorophenyl)-8-ethyl-8-azabicyclo[3.2.1]octan-3-ol] | 5.29 | 5.24 |
| Cc1nc(-c2ccc(CN3CCN(CC(C)(C)O)CC3)cc2)cc2c1c(F)c(-c1ccc(S(C)(=O)=O)cc1)n2C [Example 122, 1-(4-(4-(3-fluoro-1,4-dimethyl-2-(4-(methylsulfonyl)phenyl)-1H-pyrrolo[3,2-c]pyridin-6-yl)benzyl)piperazin-1-yl)-2-methylpropan-2-ol] | 5.43 | 4.77 |
| CC(C)(O)CN1CCN(Cc2ccc(-c3cc4c(cn3)cc(-c3ccc(S(C)(=O)=O)cc3)n4C3CC3)cc2)CC1 [Example 128, 1-(4-(4-(1-cyclopropyl-2-(4-(methylsulfonyl)phenyl)-1H-pyrrolo[3,2-c]pyridin-6-yl)benzyl)piperazin-1-yl)-2-methylpropan-2-ol] | 5.10 | 5.55 |
| Cc1nc(-c2ccc(CN3CCN(CC(C)(C)O)CC3)cc2)cc2c1cc(-c1ccc(S(C)(=O)=O)cc1)n2C1CC1 [Example 123, 1-(4-(4-(1-cyclopropyl-4-methyl-2-(4-(methylsulfonyl)phenyl)-1H-pyrrolo[3,2-c]pyridin-6-yl)benzyl)piperazin-1-yl)-2-methylpropan-2-ol] | 4.75 | 5.43 |
| CC(C)CN1CCN(c2ccc(-c3cc4c(cn3)cc(-c3ccc(S(C)(=O)=O)cc3)n4C)cc2)CC1 [Example 53, 6-(4-(4-isobutylpiperazin-1-yl)phenyl)-1-methyl-2-(4-(methylsulfonyl)phenyl)-1H-pyrrolo[3,2-c]pyridine] | < 4.30 | < 4.30 |
| Cc1nc(-c2ccc(CN3CCN(CCCO)CC3)cc2)cc2c1cc(-c1ccc(S(C)(=O)=O)cc1)n2C [Example 58, 3-(4-(4-(1,4-dimethyl-2-(4-(methylsulfonyl)phenyl)-1H-pyrrolo[3,2-c]pyridin-6-yl)benzyl)piperazin-1-yl)propan-1-ol] | 4.75 | 5.09 |
